Test results reported in ChEMBL document CHEMBL3045200, “Design, synthesis of some 2,6,9-trisubstituted purinyl thioureido derivatives and evaluation of antimicrobial activity” (2012).
In brackets after ≈: the same amount, converted by molar mass.

Columns and labels:
Type in all cases: functional
[1] = system: Staphylococcus aureus; assay: Antibacterial activity against Staphylococcus aureus after 24 hr by broth serial microdilution method
[2] = system: Bacillus subtilis; assay: Antibacterial activity against Bacillus subtilis after 24 hr by broth serial microdilution method
[3] = system: Aspergillus niger; assay: Antifungal activity against Aspergillus niger by broth serial microdilution method
[4] = system: Klebsiella pneumoniae; assay: Antibacterial activity against Klebsiella pneumoniae after 24 hr by broth serial microdilution method
[5] = system: Salmonella typhi; assay: Antibacterial activity against Salmonella enterica subsp. enterica serovar Typhi after 24 hr by broth serial microdilution method

Compound: Nc1nc(NCC(=O)NC(=S)Nc2nc3ccc([N+](=O)[O-])cc3s2)c2ncn(S(=O)(=O)c3ccccc3)c2n1
- MIC [1]: 510 µM (≈ 298 µg/mL)
- MIC [2]: 510 µM (≈ 298 µg/mL)
- MIC [3]: 510 µM (≈ 298 µg/mL)
- MIC [4]: 510 µM (≈ 298 µg/mL)
- MIC [5]: 510 µM (≈ 298 µg/mL)

Compound: Nc1nc(NCC(=O)NC(=S)Nc2nc3c([N+](=O)[O-])cccc3s2)c2ncn(S(=O)(=O)c3ccccc3)c2n1
- MIC [1]: 510 µM (≈ 298 µg/mL)
- MIC [2]: 510 µM (≈ 298 µg/mL)
- MIC [3]: 510 µM (≈ 298 µg/mL)
- MIC [4]: 510 µM (≈ 298 µg/mL)
- MIC [5]: 510 µM (≈ 298 µg/mL)

Compound: Nc1nc(NCC(=O)NC(=S)Nc2nc3ccc(F)cc3s2)c2ncn(S(=O)(=O)c3ccccc3)c2n1
- MIC [1]: 530 µM (≈ 296 µg/mL)
- MIC [2]: 360 µM (≈ 201 µg/mL)
- MIC [3]: 360 µM (≈ 201 µg/mL)
- MIC [4]: 180 µM (≈ 100 µg/mL)
- MIC [5]: 360 µM (≈ 201 µg/mL)

Compound: CC1(C)S[C@@H]2[C@H](NC(=O)[C@H](N)c3ccccc3)C(=O)N2[C@H]1C(=O)O [AMPICILLIN]
- MIC [1]: 130 µM (≈ 45.4 µg/mL)
- MIC [2]: 270 µM (≈ 94.3 µg/mL)
- MIC [4]: 130 µM (≈ 45.4 µg/mL)
- MIC [5]: 200 µM (≈ 69.9 µg/mL)

Compound: Nc1nc(NCC(=O)NC(=S)Nc2nc3c(Cl)cccc3s2)c2ncn(S(=O)(=O)c3ccccc3)c2n1
- MIC [1]: 350 µM (≈ 201 µg/mL)
- MIC [2]: 350 µM (≈ 201 µg/mL)
- MIC [3]: 350 µM (≈ 201 µg/mL)
- MIC [4]: 170 µM (≈ 97.6 µg/mL)
- MIC [5]: 350 µM (≈ 201 µg/mL)

Compound: Nc1nc(NCC(=O)NC(=S)Nc2nc3cc([N+](=O)[O-])ccc3s2)c2ncn(S(=O)(=O)c3ccccc3)c2n1
- MIC [1]: 510 µM (≈ 298 µg/mL)
- MIC [2]: 510 µM (≈ 298 µg/mL)
- MIC [3]: 510 µM (≈ 298 µg/mL)
- MIC [4]: 510 µM (≈ 298 µg/mL)
- MIC [5]: 510 µM (≈ 298 µg/mL)

Compound: COc1ccc2nc(NC(=S)NC(=O)CNc3nc(N)nc4c3ncn4S(=O)(=O)c3ccccc3)sc2c1
- MIC [1]: 350 µM (≈ 199 µg/mL)
- MIC [2]: 180 µM (≈ 103 µg/mL)
- MIC [3]: 180 µM (≈ 103 µg/mL)
- MIC [4]: 350 µM (≈ 199 µg/mL)
- MIC [5]: 540 µM (≈ 308 µg/mL)

Compound: Nc1nc(NCC(=O)NC(=S)Nc2nc3ccccc3s2)c2ncn(S(=O)(=O)c3ccccc3)c2n1
- MIC [1]: 560 µM (≈ 302 µg/mL)
- MIC [2]: 1290 µM (≈ 696 µg/mL)
- MIC [3]: 550 µM (≈ 297 µg/mL)
- MIC [4]: 550 µM (≈ 297 µg/mL)
- MIC [5]: 560 µM (≈ 302 µg/mL)

Compound: COc1ccc2sc(NC(=S)NC(=O)CNc3nc(N)nc4c3ncn4S(=O)(=O)c3ccccc3)nc2c1
- MIC [1]: 530 µM (≈ 302 µg/mL)
- MIC [2]: 350 µM (≈ 199 µg/mL)
- MIC [3]: 350 µM (≈ 199 µg/mL)
- MIC [4]: 530 µM (≈ 302 µg/mL)
- MIC [5]: 350 µM (≈ 199 µg/mL)

Compound: Nc1nc(NCC(=O)NC(=S)Nc2nc3ccc(Cl)cc3s2)c2ncn(S(=O)(=O)c3ccccc3)c2n1
- MIC [1]: 520 µM (≈ 299 µg/mL)
- MIC [2]: 350 µM (≈ 201 µg/mL)
- MIC [3]: 350 µM (≈ 201 µg/mL)
- MIC [4]: 350 µM (≈ 201 µg/mL)
- MIC [5]: 530 µM (≈ 304 µg/mL)

Compound: OC(Cn1cncn1)(Cn1cncn1)c1ccc(F)cc1F [FLUCONAZOLE]
- MIC [3]: 350 µM (≈ 107 µg/mL)

Compound: O=C(O)c1cn(C2CC2)c2cc(N3CCNCC3)c(F)cc2c1=O [CIPROFLOXACIN]
- MIC [1]: 190 µM (≈ 63 µg/mL)
- MIC [2]: 250 µM (≈ 82.8 µg/mL)
- MIC [4]: 120 µM (≈ 39.8 µg/mL)
- MIC [5]: 190 µM (≈ 63 µg/mL)

Compound: Cc1ccc2nc(NC(=S)NC(=O)CNc3nc(N)nc4c3ncn4S(=O)(=O)c3ccccc3)sc2c1
- MIC [1]: 540 µM (≈ 299 µg/mL)
- MIC [2]: 540 µM (≈ 299 µg/mL)
- MIC [3]: 540 µM (≈ 299 µg/mL)
- MIC [4]: 540 µM (≈ 299 µg/mL)
- MIC [5]: 530 µM (≈ 293 µg/mL)
